Measurements reported in the supplement of paper PMC5908809.

Experiments:
[1] = tested on: normal NK cells expanded with K562-aAPC; test: drug sensitivity score (DSS) (DSS units); higher = more sensitive; extreme values may be limits of the assay; conditions: 72 h; IL-2 2.5 ng/mL
Protocol: (§1)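 Drug sensitivity and resistance testing on K562-aAPC-expanded normal NK cells: 5 concentrations (10-fold steps over a 10,000-fold range), 72 h at 37 °C, viability by CellTiter-Glo normalised to DMSO and benzethonium chloride controls; DSS from the fitted curve.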

NKL (IL-2 2.5 ng/mL) [2] = test: as above; conditions: 72 h
[3] = tested on: normal primary NK cells, pool 2 (3 donors) (IL-2 2.5 ng/mL); test: as above; conditions: 72 h
[4] = tested on: normal primary NK cells, pool 1 (3 donors) (IL-2 2.5 ng/mL); test: as above; conditions: 72 h
KHYG-1 (IL-2 2.5 ng/mL) [5] = test: as above; conditions: 72 h
NK-92 (IL-2 2.5 ng/mL) [6] = test: as above; conditions: 72 h
YT (IL-2 2.5 ng/mL) [7] = test: as above; conditions: 72 h
IMC-1 (IL-2 20 ng/mL) [8] = test: as above; conditions: 72 h
[9] = tested on: normal primary NK cells, pool 3 (3 donors) (IL-2 2.5 ng/mL); test: as above; conditions: 72 h
NK-YS (IL-2 2.5 ng/mL) [10] = test: as above; conditions: 72 h
KAI3 (IL-2 2.5 ng/mL) [11] = test: as above; conditions: 72 h
DERL-7 (IL-2 2.5 ng/mL) [12] = test: as above; conditions: 72 h
[13] = tested on: normal primary NK cells, pool 1 (3 donors), resting (IL-2 0 ng/mL); test: as above; conditions: 72 h
SNK-6 (IL-2 2.5 ng/mL) [14] = test: as above; conditions: 72 h
[15] = tested on: normal NK cells expanded with K562-aAPC; test: percent inhibition of viability; higher = more inhibition; conditions: 72 h, IL-2 2.5 ng/mL
Protocol: as §1

NKL (IL-2 2.5 ng/mL) [16] = test: as above; conditions: 72 h
[17] = tested on: normal primary NK cells, pool 2 (3 donors) (IL-2 2.5 ng/mL); test: as above; conditions: 72 h
[18] = tested on: normal primary NK cells, pool 1 (3 donors) (IL-2 2.5 ng/mL); test: as above; conditions: 72 h
KHYG-1 (IL-2 2.5 ng/mL) [19] = test: as above; conditions: 72 h
NK-92 (IL-2 2.5 ng/mL) [20] = test: as above; conditions: 72 h
YT (IL-2 2.5 ng/mL) [21] = test: as above; conditions: 72 h
IMC-1 (IL-2 20 ng/mL) [22] = test: as above; conditions: 72 h
[23] = tested on: normal primary NK cells, pool 3 (3 donors) (IL-2 2.5 ng/mL); test: as above; conditions: 72 h
NK-YS (IL-2 2.5 ng/mL) [24] = test: as above; conditions: 72 h
KAI3 (IL-2 2.5 ng/mL) [25] = test: as above; conditions: 72 h
DERL-7 (IL-2 2.5 ng/mL) [26] = test: as above; conditions: 72 h
[27] = tested on: normal primary NK cells, pool 1 (3 donors), resting (IL-2 0 ng/mL); test: as above; conditions: 72 h
SNK-6 (IL-2 2.5 ng/mL) [28] = test: as above; conditions: 72 h

C[C@H](Nc1ncnc2nc[nH]c12)c1cc2cccc(Cl)c2c(=O)n1-c1ccccc1 [Duvelisib] (max concentration tested 500 nM)
Conditions | drug sensitivity score
DERL-7 (IL-2 2.5 ng/mL) [12] | 6.16
IMC-1 (IL-2 20 ng/mL) [8] | 0
KAI3 (IL-2 2.5 ng/mL) [11] | 1.4
KHYG-1 (IL-2 2.5 ng/mL) [5] | 0.45
NK-92 (IL-2 2.5 ng/mL) [6] | 7.08
NK-YS (IL-2 2.5 ng/mL) [10] | 0.07
NKL (IL-2 2.5 ng/mL) [2] | 3.86
SNK-6 (IL-2 2.5 ng/mL) [14] | 2.8
YT (IL-2 2.5 ng/mL) [7] | 0.15
[1] | 4.43
[3] | 1.9
[4] | 0.83
[9] | 0.66
[13] | 0

percent inhibition of viability [%]
Conditions | 0.05 nM | 0.5 nM | 5 nM | 50 nM | 500 nM
DERL-7 (IL-2 2.5 ng/mL) [26] | -0.14 | 9.15 | 10.2 | 25.2 | 56.5
IMC-1 (IL-2 20 ng/mL) [22] | 0.88 | -0.84 | -0.96 | -0.33 | 6.98
KAI3 (IL-2 2.5 ng/mL) [25] | -4.68 | 0.86 | 7.47 | 8.25 | 24.3
KHYG-1 (IL-2 2.5 ng/mL) [19] | 1.1 | 3.56 | 6.06 | 5.02 | 18.1
NK-92 (IL-2 2.5 ng/mL) [20] | -9.06 | -4.46 | 22.4 | 26.1 | 42.3
NK-YS (IL-2 2.5 ng/mL) [24] | -2.69 | -4.82 | 0.82 | -1.23 | 13
NKL (IL-2 2.5 ng/mL) [16] | -10.5 | 7.21 | 0.54 | 24.6 | 17.3
SNK-6 (IL-2 2.5 ng/mL) [28] | -0.58 | 4.35 | 2.29 | 9.46 | 32.8
YT (IL-2 2.5 ng/mL) [21] | 0.13 | 2.78 | 3.52 | 2.82 | 12.4
[15] | -2.59 | 4.75 | 5.15 | 19.8 | 45.7
[17] | -6.04 | 4.46 | 6.08 | 11.3 | 26.1
[18] | -0.52 | -4.76 | 3.49 | 6.72 | 18.7
[23] | -13.6 | -1.02 | -2.45 | -0.85 | 21.8
[27] | 0.72 | -3.61 | 2.62 | -2.38 | 3.26

C[C@@H]1C[C@H]2[C@@H]3CCC4=CC(=O)C=C[C@]4(C)[C@@]3(F)[C@@H](O)C[C@]2(C)[C@@]1(O)C(=O)CO [Dexamethasone] (max concentration tested 10000 nM)
Conditions | drug sensitivity score
DERL-7 (IL-2 2.5 ng/mL) [12] | 37.9
IMC-1 (IL-2 20 ng/mL) [8] | 0
KAI3 (IL-2 2.5 ng/mL) [11] | 1.14
KHYG-1 (IL-2 2.5 ng/mL) [5] | 15.6
NK-92 (IL-2 2.5 ng/mL) [6] | 0
NK-YS (IL-2 2.5 ng/mL) [10] | 1.07
NKL (IL-2 2.5 ng/mL) [2] | 24.6
SNK-6 (IL-2 2.5 ng/mL) [14] | 0
YT (IL-2 2.5 ng/mL) [7] | 9.59
[1] | 25.3
[3] | 26
[4] | 28.9
[9] | 17.3
[13] | 35.4

percent inhibition of viability [%]
Conditions | 1 nM | 10 nM | 100 nM | 1000 nM | 10000 nM
DERL-7 (IL-2 2.5 ng/mL) [26] | -2.49 | 63.1 | 100 | 101 | 101
IMC-1 (IL-2 20 ng/mL) [22] | -2.17 | -4.52 | -10.6 | -12.7 | -2.61
KAI3 (IL-2 2.5 ng/mL) [25] | -8.83 | -13.5 | -3.07 | -3.87 | 31.2
KHYG-1 (IL-2 2.5 ng/mL) [19] | -1.02 | 14.1 | 39.9 | 50.3 | 69.1
NK-92 (IL-2 2.5 ng/mL) [20] | -14.3 | -20.1 | -19.3 | -2.77 | 5.06
NK-YS (IL-2 2.5 ng/mL) [24] | -5.2 | -1.29 | 1.38 | 4.74 | 18.8
NKL (IL-2 2.5 ng/mL) [16] | 12.3 | 38.1 | 57.3 | 64.1 | 67.1
SNK-6 (IL-2 2.5 ng/mL) [28] | -0.75 | -7.56 | -4.28 | -3.37 | 8.99
YT (IL-2 2.5 ng/mL) [21] | -0.83 | 11.3 | 22.4 | 36.4 | 45.4
[15] | 1.98 | 35.4 | 61.5 | 68.6 | 77.8
[17] | 2.03 | 37.3 | 63.2 | 69.1 | 74.5
[18] | 2.6 | 42 | 68.9 | 80.5 | 86.6
[23] | -8.83 | 19.5 | 43.5 | 50.7 | 58
[27] | 8.34 | 65.5 | 83.1 | 84.5 | 86.9

O=C(CCCCCCC(=O)Nc1ccccc1)NO [Vorinostat] (max concentration tested 10000 nM)
Conditions | drug sensitivity score
DERL-7 (IL-2 2.5 ng/mL) [12] | 13.7
IMC-1 (IL-2 20 ng/mL) [8] | 7.28
KAI3 (IL-2 2.5 ng/mL) [11] | 17.3
KHYG-1 (IL-2 2.5 ng/mL) [5] | 15.2
NK-92 (IL-2 2.5 ng/mL) [6] | 15.4
NK-YS (IL-2 2.5 ng/mL) [10] | 10.9
NKL (IL-2 2.5 ng/mL) [2] | 16.4
SNK-6 (IL-2 2.5 ng/mL) [14] | 13
YT (IL-2 2.5 ng/mL) [7] | 9.63
[1] | 12.2
[3] | 10.8
[4] | 15.7
[9] | 7.93
[13] | 14.8

percent inhibition of viability [%]
Conditions | 1 nM | 10 nM | 100 nM | 1000 nM | 10000 nM
DERL-7 (IL-2 2.5 ng/mL) [26] | -1.03 | -2.59 | -8.59 | 72 | 101
IMC-1 (IL-2 20 ng/mL) [22] | -3.93 | -0.96 | -3.21 | 10.4 | 101
KAI3 (IL-2 2.5 ng/mL) [25] | -1.17 | 1.24 | 28.6 | 72.4 | 106
KHYG-1 (IL-2 2.5 ng/mL) [19] | -10.8 | -5.48 | -3.11 | 83.4 | 108
NK-92 (IL-2 2.5 ng/mL) [20] | -12.1 | -8.53 | 8.96 | 76.6 | 107
NK-YS (IL-2 2.5 ng/mL) [24] | -9.89 | -6.61 | -3.67 | 40.2 | 105
NKL (IL-2 2.5 ng/mL) [16] | -8.87 | -13.6 | 15.1 | 78.1 | 107
SNK-6 (IL-2 2.5 ng/mL) [28] | 1.27 | -7.67 | 9.77 | 59.8 | 100
YT (IL-2 2.5 ng/mL) [21] | -0.8 | -1.86 | 3.47 | 27.2 | 106
[15] | -0.79 | -2.42 | 2.48 | 56.2 | 100
[17] | -5.53 | -2.6 | -3.11 | 42.6 | 96.4
[18] | 10.5 | 10 | 21.7 | 67.8 | 98.3
[23] | -8.36 | -6.48 | 0.69 | 14.9 | 98.3
[27] | -1.81 | 11.6 | 10.4 | 71.9 | 90.8
